Laboratory results: patent US20090170897A1, “Method of Treating Neuropathic Pain” (Pfizer, Inc., priority 2004, published 2009)

Assays:
CCI-induced pain in rats = conditions: literature; cited from earlier work
[1] = system: Chronic Constriction Injury (CCI) rat model of neuropathic pain; conditions: literature; cited from earlier work
[2] = system: Streptozocin (STZ)-induced diabetes neuropathy in the rat; conditions: literature; cited from earlier work
[3] = system: Streptozocin (STZ)-induced diabetes neuropathy in the rat; conditions: literature; cited from earlier work; remark: listed apart in the source
[4] = system: Streptozocin (STZ)-induced diabetes neuropathy in the rat; experiment: STZ-induced dynamic allodynia (cotton bud, PWL); type: in vivo; conditions: compound 25 mg/kg PO; gabapentin 100 mg/kg PO (positive control)
Method: (§1) Male Sprague Dawley rats weighing 150-400 g obtained from Charles River (Manston, Kent, UK.) were housed in groups of 3. All animals were kept under a 12 h light/dark cycle (lights on at 07 h 00 min) with food and water ad libitum. All experiments were carried out by an observer blind to the treatments and in accordance with the Home Office Animals (Scientific Procedures) Act 1986.
(§2) Diabetes was induced by a single intraperitoneal injection of streptozotocin (50 mg/kg) freshly dissolved in 0.9% sterile saline. Streptozotocin injection induces a reproducible mechanical allodynia within 3 weeks, lasting for at least 7 weeks (Chen and Pan, (Chen S R and Pan H L. Hypersensitivity of Spinothalamic Tract Neurons Associated With Diabetic Neuropathic Pain in Rats. J Neurophysiol 87: 2726-2733, 2002).
Dynamic allodynia was assessed by lightly stroking the plantar surface of the hind paw with a cotton bud. To avoid recording general motor activity, care was taken to perform this procedure in fully habituated rats that were not active. At least two measurements were taken at each time point, the mean of which represented the paw withdrawal latency (PWL). […] A pain withdrawal response was often accompanied with repeated flinching or licking of the paw. Dynamic allodynia was considered to be present if animals responded to the cotton stimulus within 8 sec of commencing stroking (Field et al, 1999).
(§3) All the experiments were conducted blind. Static allodynia was expressed as median [LQ; UQ] and analysed by Mann Whitney U test. Dynamic allodynia and thermal hyperalgesia were expressed as arithmetic mean±SEM and analysed by ANOVA.

[5] = system: Chronic Constriction Injury (CCI) rat model of neuropathic pain; conditions: literature; cited from earlier work; remark: listed apart in the source
[6] = system: Streptozocin (STZ)-induced diabetes neuropathy in the rat; experiment: STZ-induced static allodynia (von Frey hairs, PWT); type: in vivo; conditions: compound 25 mg/kg PO; gabapentin 100 mg/kg PO (positive control)
Method: as §1, §2
Animals were habituated to wire bottom test cages prior to the assessment of allodynia. Static allodynia was evaluated by application of von Frey hairs (Stoelting, Wood Dale, Ill., USA.) in ascending order of force (0.6, 1, 1.4, 2, 4, 6, 8, 10, 15 and 26 grams) to the plantar surface of hind paws. Each von Frey hair was applied to the paw for a maximum of 6 sec, or until a withdrawal response occurred. Once a withdrawal response to a von Frey hair was established, the paw was re-tested, starting with the filament below the one that produced a withdrawal, and subsequently with the remaining filaments in descending force sequence until no withdrawal occurred. The highest force of 26 g lifted the paw as well as eliciting a response, thus represented the cut off point. Each animal had both hind paws tested in this manner. The lowest amount of force required to elicit a response was recorded as paw withdrawal threshold (PWT) in grams. Static allodynia was defined as present if animals responded to a stimulus of, or less than, 4 g, which is innocuous in naive rats (Field M J, Bramwell S, Hughes J, Singh L. Detection of static and dynamic components of mechanical allodynia in rat models of neuropathic pain: are they signalled by distinct primary sensory neurones? Pain, 1999; 83:303-11).
as §3

[7] = system: Carrageenan-induced thermal hyperalgesia (CITH) in the rat; experiment: Carrageenan-induced thermal hyperalgesia (CITH), rat plantar test; type: in vivo; conditions: 3 mg/kg SC
Method: as §1
Thermal hyperalgesia was assessed using the rat plantar test (Ugo Basile, Comerio, Italy), according to a method modified by Hargreaves et al. (1988). Briefly, rats were habituated to the apparatus that consisted of three individual Perspex boxes on a glass table. A mobile radiant heat source was located under the table and focused onto the desired paw. Paw withdrawal latencies (PWLs) were recorded three times for both hind paws of each animal, the mean of which represented baseline for left and right hind paws. The apparatus was calibrated to give a PWL of approximately 10 s in naïve rats. To prevent tissue damage of the plantar zone, a 22.5 sec cut-off was observed. Lambda carrageenan was injected intraplantarly (100 μl, 20 mg/ml) the right hind paw and baseline recordings of PWT were taken 2 hr post administration.
as §3

CRTH2 receptor = biological target: T1, CRTH2 receptor (Homo sapiens, UniProt Q9Y5Y4); experiment: calcium mobilization in cells that express CRTH2 receptor; type: cell-based; conditions: absence of test compound, Indo-1 fluorescence; read-out: EC50 of increased [Ca2+]i
T1 construct: Flag peptide (behind a 'prolac' signal peptide) (N); expressed in transfected cells
T1 sequence (Q9Y5Y4 1-395): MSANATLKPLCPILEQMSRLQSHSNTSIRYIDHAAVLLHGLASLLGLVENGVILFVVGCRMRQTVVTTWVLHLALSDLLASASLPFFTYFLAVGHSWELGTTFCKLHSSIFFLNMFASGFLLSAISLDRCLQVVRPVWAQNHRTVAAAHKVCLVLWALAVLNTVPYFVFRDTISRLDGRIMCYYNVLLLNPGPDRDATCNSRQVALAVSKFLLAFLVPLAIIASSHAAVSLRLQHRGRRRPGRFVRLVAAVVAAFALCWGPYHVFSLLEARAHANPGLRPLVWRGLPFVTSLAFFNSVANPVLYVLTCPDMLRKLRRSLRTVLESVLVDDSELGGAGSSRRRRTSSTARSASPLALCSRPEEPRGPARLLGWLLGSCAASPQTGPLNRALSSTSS
Method: The ratio of fluorescence produced by the calcium-bound dye to that produce by the unbound dye is used to estimate the intracellular calcium concentration. In an example method cells that express CRTH2 receptor are collected, and resuspended in fresh media at ˜2×10^5/ml the day before performing the calcium flux assay. Cells are incubated at 37° C. for not longer than 20-30 minutes, and then spun down and resuspended in 50 ml fresh PTI buffer (Hank's Buffer, pH 7.2-7.4; 10 mM Hepes; 1.6 mM CaCl2) containing Indo-1 AM, pre-warmed to 37° C., at a concentration of 10 million per ml. Cells are excited, and fluorescence is measured using a fluorimeter (Photon Technology Corporation, International). After the readout has stabilized, the time axis is reset, and PGD2 is added at a specific time point (e.g., 20 seconds). After response, the following reagents are added to the cuvette, to release and chelate total calcium, in the following order: 20 μl of 18% Triton X-100, 20 μl of 3M Tris, pH 8.5, and 20 μl of 0.5M EGTA, pH 8.5. The experiment is repeated in the presence and the absence of a test compound. […] Therefore, in the presence of an antagonist test compound, the EC50 would be expected to […].

Compound: Cc1ccc(-c2cc(C(F)(F)F)nn2-c2ccc(S(N)(=O)=O)cc2)cc1 [Celebrex]
- reversal of CCI-induced pain in rats (Schäfers 2004) (CCI-induced pain in rats): no significant effect

Compound: NCC1(CC(=O)O)CCCCC1 [Gabapentin]
- static allodynia in CCI rat model (Field et al 1999) [1]: reverse both static and dynamic allodynia
- dynamic allodynia in STZ rat model (Field et al 1999) [2]: reverse both static and dynamic allodynia
- static allodynia in STZ rat model (Field et al 1999) [3]: reverse both static and dynamic allodynia
- effect on maintenance of STZ-induced dynamic allodynia [4]: complete reversal
- dynamic allodynia in CCI rat model (Field et al 1999) [5]: reverse both static and dynamic allodynia
- effect on maintenance of STZ-induced static allodynia [6]: complete reversal

Compound: CC(C)Cc1ccc(C(C)C(=O)O)cc1 (centres unmarked) [Ibuprofen]
- reversal of CCI-induced pain in rats (Schäfers 2004) (CCI-induced pain in rats): no significant effect

Compound: CN1CC[C@]23c4c5ccc(O)c4O[C@H]2[C@@H](O)C=C[C@H]3[C@H]1C5 [Morphine, reference compound]
- static allodynia in CCI rat model (Field et al 1999) [1]: reverses static
- dynamic allodynia in CCI rat model (Field et al 1999) [5]: not dynamic allodynia
- analgesic effect of positive control [7]: produced the expected analgesic effect
- change of PWLs in both hindpaws ([7]; 30 min post dose): increased the PWLs in both hindpaws over the baseline value of naïve rats

Compound: CCCCC[C@H](O)/C=C/[C@H]1C(=O)C[C@H](O)[C@@H]1C/C=C\CCCC(=O)O [PGD2, Prostaglandin D2]
- EC50 (CRTH2 receptor): 15 nM

Compound: CC(C)C[C@H](CN)CC(=O)O [Pregabalin]
- static allodynia in CCI rat model (Field et al 1999) [1]: reverse both static and dynamic allodynia
- dynamic allodynia in STZ rat model (Field et al 1999) [2]: reverse both static and dynamic allodynia
- static allodynia in STZ rat model (Field et al 1999) [3]: reverse both static and dynamic allodynia
- dynamic allodynia in CCI rat model (Field et al 1999) [5]: reverse both static and dynamic allodynia
